Assay results taken from US6046289A, “Propenamide derivatives containing Arg-Gly-Asp polymers obtained therefrom” (priority 1990, dated 2000).

System: human plasma rich in platelet
Experiment: Platelet coagulation-inhibitory activity in vitro (aggregometer, ADP or collagen stimulation)
Format: cell-based
Description: The platelet coagulation-inhibitory effect of the compounds of the present invention was assayed, in vitro, using human plasma rich in platelet. The experimental method will be described below.
To fresh human blood, there was added 1/9 volume of a 3.8% sodium citrate solution, the resulting mixture was centrifuged (1000 rpm; for 10 minutes) and the upper layer was separated as a plasma rich in platelet. The propenamide derivatives, the polymers thereof, the copolymers thereof or salts thereof obtained through lyophilization were dissolved in physiological saline to give a plurality of solutions having various concentrations ranging from 0 to 1.5 mg/ml. Each of the solutions (25 μl) was added to 200 μl of the plasma, incubated at 37° C. for 3 minutes, then a 50 μM of ADP (adenosine diphosphate) solution or a 200 μg/ml collagen solution was added to determine the extent of coagulation in terms of transmittance determined by an aggregometer.
Rate of Coagulation Inhibition=(1-T/T0)×100%
T0 : Transmittance observed when the propenamide derivatives, the polymers thereof, the copolymers thereof or salts thereof were not added.
T: Transmittance observed when the propenamide derivatives, the polymers thereof, the copolymers thereof or salts thereof were added.

Platelet Coagulation-Inhibitory Activity IC50 ADP Stimulation (ADP Stimulation): C (more than 80)
Platelet Coagulation-Inhibitory Activity IC50 Collagen Stimulation (Collagen Stimulation): C (more than 80)
Substance: trimethylammonioethyl methacrylamide [Preparation product 14]
